# Measured values published in US5532229A, “Topical administration of vitamin D to mammals” (priority 1994, dated 1996).
# Entries after “also recorded” stand apart in the source; their conditions may differ.
# Assays:
# [1] = Experiment 1: serum radioactivity after one administration of radiolabelled vitamin D3 (intracardiac, gastric, dermal); assay type: in vivo, Wistar rats
# Source text: Each point is the mean of 3-6 rats;
# A comparison of serum radioactivity after one administration of radiolabelled vitamin D3 via the skin or gut, compared to intravascular injection.
# The protocols and procedures used in this work were approved beforehand by an animal-care committee at the University of Toronto. Wistar rats, 250-g weight and fed normal diet, were divided into three groups of six, and each rat was given 400,000 cpm of […] (57 mCi/mmol, Amersham, UK). One group was given the [^14 C]-vitamin D3 by intracardiac injection; one group was given the tracer through an infant-feeding tube, directly into the stomach; and one group received the dose by application in 50 μL ethanol to a 2×2 cm patch of shaved skin on the lower back. Blood was taken by bleeding 0.25 mL from the tail, from three rats at a time, for each time indicated in the graph, except for the final sample at 3 wk, which is from all rats at the time of killing with an anesthetic overdose. The serum was counted in a Beckman LS6800 beta-counter and results are corrected for background, sample volume, and rat weight.
# [2] = Experiment 3: vitamin D-binding capacity of serum (specific uptake of [3H]-25(OH)D3); assay type: in vivo, rat; details: 6 weeks
# Procedure: Male, Wistar rats were obtained at 120-130 g, and placed on a 0.01% calcium, 0.7% phosphate diet that was vitamin D deficient (Teklad Test Diets, Madison, WI) this was for one week to help deplete vitamin D stores. For the next three weeks the rats were fed the vitamin D-deficient diet, but with normal, 0.5%, calcium. Starting with these 3 weeks, the rats were divided into four vitamin D3 -treatment groups, initially, nine rats per group: group a) supplemented once weekly with 0.6 μg vitamin D3 (average dose, 0.08 μg/day); group b) supplemented once every second day with vitamin D3 to provide 2 nmol/day, i.e., each dose was 4 nmol of vitamin D3; group c) supplemented once every second day with vitamin D3 to provide 8 μg/day. The preceding groups all received the vitamin D3 through an infant-feeding tube inserted through the mouth into the stomach. One group, d), received its vitamin D3 in the ethanol applied onto a shaved 2 cm×2 cm patch of skin on the back, this was done every second day to provide vitamin D3 at 8 μg/day. The volume of each dose of vitamin D3 given was adjusted so that the stated doses are per 250 g body weight. Over a second 3-week period while maintaining the described vitamin D3 dosing regimens, diet calcium content was changed weekly and blood sampling was started (that is, changes in calcium and sampling was from weeks 4 to 6, inclusive, of receiving the appropriate vitamin D3 supplement). Diet calcium was first dropped to 0.01% then raised to 1.5% and finally dropped again to 0.01%. For each week of dietary calcium manipulation, blood was obtained at day zero (the day of but just prior to the change in calcium), and days 1, 3, and 7 after the change. During the first week, 0.5 mL of blood was taken on the first two of these days and anticoagulated with heparin, the cells were isolated and resuspended in normal rat plasma and reinjected into the femoral vein. […] For the subsequent samplings, only 0.2-0.3 mL of blood was taken by bleeding from the tail into precalibrated microcentrifuge tubes. […]
# Biochemical measurements. 1,25(OH)2 D3 in serum was measured by calf-thymus receptor-binding assay after initial purification of 1,25(OH)2 D3 with C18-OH cartridges (5). For the serum volumes that were minimal, serum was measured out in 50 μL increments, and the final result was adjusted for the volume of sample analyzed. […] The material eluting as 1,25(OH)2 D3 was evaporated and redissolved in acetonitrile: water for further purification with C18-OH cartridges and quantitation by thymus receptor assay, as described for serum. Renal 24-hydroxylase was measured by incubating mitochondria with [^3 H]-25(OH)D3 as substrate (Vieth and Fraser, J Biol Chem. 254:12455-12460;1979). […]
# 1α-hydroxylase = experiment: Experiment 3: 1-hydroxylase in renal mitochondria; assay type: in vivo, rat; details: for Renal mitochondria 1a-hydroxylase: 6 weeks
# Procedure: (§1) Male, Wistar rats were obtained at 120-130 g, and placed on a 0.01% calcium, 0.7% phosphate diet that was vitamin D deficient (Teklad Test Diets, Madison, WI) this was for one week to help deplete vitamin D stores. For the next three weeks the rats were fed the vitamin D-deficient diet, but with normal, 0.5%, calcium. Starting with these 3 weeks, the rats were divided into four vitamin D3 -treatment groups, initially, nine rats per group: group a) supplemented once weekly with 0.6 μg vitamin D3 (average dose, 0.08 μg/day); group b) supplemented once every second day with vitamin D3 to provide 2 nmol/day, i.e., each dose was 4 nmol of vitamin D3; group c) supplemented once every second day with vitamin D3 to provide 8 μg/day. The preceding groups all received the vitamin D3 through an infant-feeding tube inserted through the mouth into the stomach. One group, d), received its vitamin D3 in the ethanol applied onto a shaved 2 cm×2 cm patch of skin on the back, this was done every second day to provide vitamin D3 at 8 μg/day. The volume of each dose of vitamin D3 given was adjusted so that the stated doses are per 250 g body weight. Over a second 3-week period while maintaining the described vitamin D3 dosing regimens, diet calcium content was changed weekly and blood sampling was started (that is, changes in calcium and sampling was from weeks 4 to 6, inclusive, of receiving the appropriate vitamin D3 supplement). Diet calcium was first dropped to 0.01% then raised to 1.5% and finally dropped again to 0.01%. For each week of dietary calcium manipulation, blood was obtained at day zero (the day of but just prior to the change in calcium), and days 1, 3, and 7 after the change. During the first week, 0.5 mL of blood was taken on the first two of these days and anticoagulated with heparin, the cells were isolated and resuspended in normal rat plasma and reinjected into the femoral vein. […] For the subsequent samplings, only 0.2-0.3 mL of blood was taken by bleeding from the tail into precalibrated microcentrifuge tubes. In this way, the bleeds prior to sacrifice removed a net total of less than 2 mL of blood, that is, less than or equal to 10% of the blood volume. Samples of daytime urine was collected into microfuge tubes that were fastened to the cones of metabolic collection funnels designed to hang under the wire cages. The cages and cones were rinsed with 0.1 mol/L hydrochloric acid prior to each collection. To eliminate contamination of the urine with diet, stool or water, the rats were placed into these separate cages only during the urine-collection period, until about 1 mL urine was present in the microfuge tube, this was typically within 5 min to one hour.
# (§2) Biochemical measurements. 1,25(OH)2 D3 in serum was measured by calf-thymus receptor-binding assay after initial purification of 1,25(OH)2 D3 with C18-OH cartridges (5). For the serum volumes that were minimal, serum was measured out in 50 μL increments, and the final result was adjusted for the volume of sample analyzed. To measure 1α-hydroxylase in renal mitochondria, the incubation was as described previously, except the substrate was 20 μmol/L nonradioactive 25(OH)D3. The assay was stopped by addition of 2.5 mL methanol. To monitor recovery of 1,25 (OH)2 D3, 2000 cpm of [^3 H]--1,25(OH)2 D3 were added in 50 μL ethanol prior to further extraction with two additions of 1.25 mL methylene chloride. The methylene chloride layer was taken and evaporated to dryness, redissolved in hexane, isopropanol, methanol (90:9: 1) for purification by HPLC, Zorbax-Sil column. The material eluting as 1,25(OH)2 D3 was evaporated and redissolved in acetonitrile: water for further purification with C18-OH cartridges and quantitation by thymus receptor assay, as described for serum. Renal 24-hydroxylase was measured by incubating mitochondria with [^3 H]-25(OH)D3 as substrate (Vieth and Fraser, J Biol Chem. 254:12455-12460;1979). […]
# 24-hydroxylase = experiment: Experiment 3: 24-hydroxylase in renal mitochondria; assay type: in vivo, rat; details: for Renal mitochondria 24-hydroxylase: 6 weeks
# Procedure: as §1, §2
# [3] = Experiment 4: short-term serum 25(OH)D3 response to increasing vitamin D3 doses; assay type: in vivo, rats; details: first 48 hours
# Procedure: Each point represents the mean ±SEM of 7 normal, 250-g rats;
# (§3) Toxicity: Short-term responses to increasing doses of vitamin D3 given dermally or by gastric tube.
# (§4) To compare the efficacy of increasing doses of vitamin D3 in the short term. A fatal oral vitamin D3 dose is 14 days of 2600 μg/day (Sheppard RM and DeLuca HF, Arch Biochem Biophys 1980; 202: 43-55). The present experiment was designed to compare effects of doses up to this level, given by gastric tube or dermally.
# [4] = Experiment 4: urinary calcium to creatinine ratio after gastric or dermal vitamin D3; assay type: in vivo, rats
# Procedure: Each point represents the mean ±SEM of 7 normal, 250-g rats.
# as §3, §4
# [5] = 50 μg in 10 μL 95% ethanol, shaved skin of rats; cited from earlier work
# [6] = generated by ultraviolet exposure, bound to DBP, experimental subjects; cited from earlier work
# [7] = 8 μg/day, gastric and dermal, vs groups with less vitamin D3
compound,measurement,setting,value
C=C1CC[C@H](O)C/C1=C/C=C1\CCC[C@]2(C)[C@@H]([C@H](C)CCCC(C)C)CC[C@@H]12 [vitamin D3],difference in serum radioactivity between dermal and oral groups,[1]; 3 wk,not statistically significant
same,vitamin D3 delivered into the blood compared to direct injection,[1]; dermal and gastric,less than half
same,rate of uptake into the circulation from the skin vs gut,"[1]; one tracer dose, rats",more slowly than from the gut
same,"radioactivity in kidney, liver, and adipose tissues",[1]; radioactive vitamin D3,paralleled to the serum levels
same,Binding Capacity for 25(OH)D3,[2]; 0.08 μg/day diet,7.1 µmol/L
same,Binding Capacity for 25(OH)D3,[2]; 0.8 μg/day G1 (gastric),6.93 µmol/L
same,Binding Capacity for 25(OH)D3,[2]; 8 μg/day G1 (gastric),7.13 µmol/L
same,Binding Capacity for 25(OH)D3,[2]; 8 μg/day dermal,7.96 µmol/L
same,difference between the two routes in activities of renal enzymes (1-hydroxylase),1α-hydroxylase; 20 nmol/250 g/day,no significant difference between the two routes
same,Renal mitochondria 1a-hydroxylase,1α-hydroxylase; 0.08 μg/day diet,1052 fmol/mg/mi
same,Renal mitochondria 1a-hydroxylase,1α-hydroxylase; 0.8 μg/day G1 (gastric),993 fmol/mg/mi
same,Renal mitochondria 1a-hydroxylase,1α-hydroxylase; 8 μg/day G1 (gastric),539 fmol/mg/mi
same,Renal mitochondria 1a-hydroxylase,1α-hydroxylase; 8 μg/day dermal,630 fmol/mg/mi
same,1-hydroxylase in kidney,1α-hydroxylase; [7],suppressed 1-hydroxylase in kidney
same,difference between the two routes in activities of renal enzymes (24-hydroxylase),24-hydroxylase; 20 nmol/250 g/day,no significant difference between the two routes
same,Renal mitochondria 24-hydroxylase,24-hydroxylase; 0.08 μg/day diet,1.34 pmol/mg/mi
same,Renal mitochondria 24-hydroxylase,24-hydroxylase; 0.8 μg/day G1 (gastric),3.67 pmol/mg/mi
same,Renal mitochondria 24-hydroxylase,24-hydroxylase; 8 μg/day G1 (gastric),8.88 pmol/mg/mi
same,Renal mitochondria 24-hydroxylase,24-hydroxylase; 8 μg/day dermal,6.26 pmol/mg/mi
same,24-hydroxylase in kidney,24-hydroxylase; [7],increased 24-hydroxylase in kidney
same,serum 25(OH)D3 vs dose,"[3]; dermal, 800 to 2600 μg",does not parallel the vitamin D3 dose beyond the 800 μg (2000 nmol)/day dose; also recorded: striking plateau
same,serum 25(OH)D3 vs dose,"[3]; gastric, up to 2600 μg",parallels the vitamin D3 dose; also recorded: increased in a direct parallel to the dose
same,increase in calcium in the urine,[4]; highest dermal dose,2.5 -fold
same,increase in calcium in the urine,[4]; highest gastric dose,6 -fold
same,response (intestinal calcium transport and serum calcium),[5],no response was detected
same,persistence in circulation,[6],circulate unchanged for a prolonged time
